ChEMBL document CHEMBL1909046, “DrugMatrix in vitro pharmacology data”

Key:
[1] = target: Voltage-gated inwardly rectifying potassium channel KCNH2 (Homo sapiens, UniProt Q12809); settings: hek293; also: in other assays of this panel Not Active means under 50% inhibition at 10 µM
[2] = target: Prostaglandin G/H synthase 1 (Homo sapiens, UniProt P23219); test: biochemical; assay type: tissue-based, Platelet; settings: platelet;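 also: inhibition of COX-1 enzyme activity, with arachidonic acid supplied as substrate; in other assays of this panel Not Active means under 50% inhibition at 10 µM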
Vasopressin V1a receptor = Vasopressin V1a receptor (Homo sapiens, UniProt P37288); assay type: cell membranes, Membrane; settings: hek293; also: in other assays of this panel Not Active means under 50% inhibition at 10 µM
[3] = DRUGMATRIX: Tumor Necrosis Factor (TNF), Non-Selective radioligand binding (ligand: [125I] TNF-alpha); assay type: cell membranes, Membrane; settings: u-937; Not Active = under 50% inhibition at 10 µM
[4] = DRUGMATRIX: Serotonin (5-Hydroxytryptamine) 5-HT3 radioligand binding (ligand: [3H] GR-65630); assay type: cell membranes, Membrane; settings: hek293; Not Active = under 50% inhibition at 10 µM
[5] = target: 5-hydroxytryptamine receptor 1B (Rattus norvegicus, UniProt P28564); assay type: cell membranes, Wistar, Cerebral cortex, Membrane; also: in other assays of this panel Not Active means under 50% inhibition at 10 µM
Neutrophil elastase = target: T1, Neutrophil elastase (Homo sapiens, UniProt P08246); assay type: tissue-based
T1 sequence (P08246 whole entry): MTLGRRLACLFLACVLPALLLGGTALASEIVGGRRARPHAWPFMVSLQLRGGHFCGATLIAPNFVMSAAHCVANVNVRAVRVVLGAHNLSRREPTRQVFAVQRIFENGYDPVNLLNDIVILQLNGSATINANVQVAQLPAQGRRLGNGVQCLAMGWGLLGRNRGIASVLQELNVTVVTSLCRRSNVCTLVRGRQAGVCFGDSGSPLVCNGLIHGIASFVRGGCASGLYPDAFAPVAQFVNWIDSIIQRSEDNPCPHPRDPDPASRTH

[6] = target: T2, Polyunsaturated fatty acid lipoxygenase ALOX15 (Oryctolagus cuniculus, UniProt P12530); test: biochemical; assay type: tissue-based, Reticulocytes; settings: reticulocytes
T2 sequence (P12530 whole entry): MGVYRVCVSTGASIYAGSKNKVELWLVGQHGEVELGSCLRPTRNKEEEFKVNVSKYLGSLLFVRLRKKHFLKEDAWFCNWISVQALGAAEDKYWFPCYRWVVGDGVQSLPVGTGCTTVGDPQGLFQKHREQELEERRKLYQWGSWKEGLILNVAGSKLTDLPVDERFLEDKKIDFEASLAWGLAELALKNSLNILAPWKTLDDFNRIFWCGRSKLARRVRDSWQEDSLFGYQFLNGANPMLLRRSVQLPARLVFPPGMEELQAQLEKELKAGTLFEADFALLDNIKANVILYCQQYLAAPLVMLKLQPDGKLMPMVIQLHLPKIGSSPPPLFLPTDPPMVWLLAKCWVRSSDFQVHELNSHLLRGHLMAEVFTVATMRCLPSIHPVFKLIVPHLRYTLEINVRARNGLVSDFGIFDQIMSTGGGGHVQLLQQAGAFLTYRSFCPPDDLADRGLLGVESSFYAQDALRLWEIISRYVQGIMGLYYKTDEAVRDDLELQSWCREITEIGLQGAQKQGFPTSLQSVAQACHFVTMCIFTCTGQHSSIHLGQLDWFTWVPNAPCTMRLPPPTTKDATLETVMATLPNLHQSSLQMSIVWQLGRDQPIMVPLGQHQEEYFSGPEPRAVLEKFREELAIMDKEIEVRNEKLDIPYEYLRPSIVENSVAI

Prostaglandin G/H synthase 1, sequence (P23219 whole entry): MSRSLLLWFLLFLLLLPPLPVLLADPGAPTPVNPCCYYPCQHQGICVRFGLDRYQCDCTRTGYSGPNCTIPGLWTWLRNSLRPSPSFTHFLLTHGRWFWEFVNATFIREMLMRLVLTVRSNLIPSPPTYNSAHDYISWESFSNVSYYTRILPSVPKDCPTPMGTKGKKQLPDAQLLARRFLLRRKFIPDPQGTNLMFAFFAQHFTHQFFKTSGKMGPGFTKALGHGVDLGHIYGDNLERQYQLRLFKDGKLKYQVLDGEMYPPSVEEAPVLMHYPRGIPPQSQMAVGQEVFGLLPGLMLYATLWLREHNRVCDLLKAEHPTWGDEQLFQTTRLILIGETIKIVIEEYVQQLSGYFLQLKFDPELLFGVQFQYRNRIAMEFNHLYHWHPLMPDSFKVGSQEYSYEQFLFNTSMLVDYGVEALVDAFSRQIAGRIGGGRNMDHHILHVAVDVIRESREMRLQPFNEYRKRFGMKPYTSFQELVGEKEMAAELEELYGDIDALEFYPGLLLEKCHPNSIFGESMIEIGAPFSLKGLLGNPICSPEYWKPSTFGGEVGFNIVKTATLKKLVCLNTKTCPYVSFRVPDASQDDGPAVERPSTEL
Vasopressin V1a receptor, sequence (P37288 whole entry): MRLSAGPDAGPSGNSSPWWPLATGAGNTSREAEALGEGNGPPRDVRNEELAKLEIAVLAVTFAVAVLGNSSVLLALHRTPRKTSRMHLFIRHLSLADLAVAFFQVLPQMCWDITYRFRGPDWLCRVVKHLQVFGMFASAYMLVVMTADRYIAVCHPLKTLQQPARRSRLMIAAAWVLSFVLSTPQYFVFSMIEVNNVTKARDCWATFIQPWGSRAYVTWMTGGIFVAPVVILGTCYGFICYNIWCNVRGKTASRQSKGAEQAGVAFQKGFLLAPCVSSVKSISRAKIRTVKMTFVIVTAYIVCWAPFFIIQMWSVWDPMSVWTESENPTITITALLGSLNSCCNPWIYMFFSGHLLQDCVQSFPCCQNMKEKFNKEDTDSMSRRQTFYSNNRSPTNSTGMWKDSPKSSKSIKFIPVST
Voltage-gated inwardly rectifying potassium channel KCNH2, sequence (Q12809 whole entry): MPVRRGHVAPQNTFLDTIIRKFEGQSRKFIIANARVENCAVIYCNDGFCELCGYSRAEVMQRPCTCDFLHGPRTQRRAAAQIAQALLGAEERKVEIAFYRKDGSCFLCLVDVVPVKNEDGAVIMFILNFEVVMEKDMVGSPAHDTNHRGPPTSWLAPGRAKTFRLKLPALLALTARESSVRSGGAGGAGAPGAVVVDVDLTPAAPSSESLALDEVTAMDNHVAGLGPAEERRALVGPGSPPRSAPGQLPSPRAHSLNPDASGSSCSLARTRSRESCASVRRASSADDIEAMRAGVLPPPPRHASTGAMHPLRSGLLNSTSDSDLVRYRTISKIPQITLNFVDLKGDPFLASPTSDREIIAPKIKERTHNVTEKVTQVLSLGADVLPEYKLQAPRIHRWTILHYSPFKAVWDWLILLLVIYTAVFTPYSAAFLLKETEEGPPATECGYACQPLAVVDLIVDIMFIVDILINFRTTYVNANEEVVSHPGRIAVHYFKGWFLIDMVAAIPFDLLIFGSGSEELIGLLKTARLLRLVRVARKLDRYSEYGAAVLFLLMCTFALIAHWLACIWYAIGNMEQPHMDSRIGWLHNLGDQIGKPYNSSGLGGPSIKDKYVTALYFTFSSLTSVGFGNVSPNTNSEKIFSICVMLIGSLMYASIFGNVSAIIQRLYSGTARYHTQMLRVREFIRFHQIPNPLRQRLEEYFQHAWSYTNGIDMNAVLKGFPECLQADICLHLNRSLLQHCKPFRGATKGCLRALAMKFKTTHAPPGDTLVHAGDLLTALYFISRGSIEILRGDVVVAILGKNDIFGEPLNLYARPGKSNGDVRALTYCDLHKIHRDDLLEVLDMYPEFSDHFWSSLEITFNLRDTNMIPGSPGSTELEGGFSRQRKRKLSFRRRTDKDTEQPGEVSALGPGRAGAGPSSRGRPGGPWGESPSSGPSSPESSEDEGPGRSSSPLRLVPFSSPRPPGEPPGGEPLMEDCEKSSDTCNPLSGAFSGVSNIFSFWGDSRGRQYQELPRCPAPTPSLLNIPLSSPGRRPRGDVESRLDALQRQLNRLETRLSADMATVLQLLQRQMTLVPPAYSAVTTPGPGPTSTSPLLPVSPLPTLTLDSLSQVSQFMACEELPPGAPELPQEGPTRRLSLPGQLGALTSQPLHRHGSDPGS
5-hydroxytryptamine receptor 1B, sequence (P28564 whole entry): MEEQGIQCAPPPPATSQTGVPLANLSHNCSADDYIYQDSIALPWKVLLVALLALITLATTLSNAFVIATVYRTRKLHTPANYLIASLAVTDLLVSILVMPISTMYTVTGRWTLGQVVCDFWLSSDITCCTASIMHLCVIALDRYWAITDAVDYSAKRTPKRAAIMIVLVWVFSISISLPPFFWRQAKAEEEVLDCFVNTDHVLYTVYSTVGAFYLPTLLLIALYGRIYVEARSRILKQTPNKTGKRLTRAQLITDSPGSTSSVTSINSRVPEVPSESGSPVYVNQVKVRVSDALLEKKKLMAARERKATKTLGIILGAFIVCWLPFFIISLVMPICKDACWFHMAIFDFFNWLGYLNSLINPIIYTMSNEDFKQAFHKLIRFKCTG

O=C(c1ccccc1C(F)(F)F)N1CCC(Cc2ccccc2)CC1
Not Active: IC50 [1] | Ki [1] | IC50 [2] | IC50 (Vasopressin V1a receptor) | IC50 [3] | Ki [3] | IC50 [4] | Ki [4] | IC50 [5] | IC50 (Neutrophil elastase) | IC50 [6]

O=C/C=C/c1ccccc1
Not Active: IC50 [1] | Ki [1] | IC50 [2] | IC50 (Vasopressin V1a receptor) | IC50 [3] | Ki [3] | IC50 [4] | Ki [4] | IC50 [5] | IC50 (Neutrophil elastase) | IC50 [6]

Nc1ccc2c3c(cccc13)C(=O)NC2=O
Not Active: IC50 [1] | Ki [1] | IC50 [2] | IC50 (Vasopressin V1a receptor) | IC50 [3] | Ki [3] | IC50 [4] | Ki [4] | IC50 [5] | IC50 (Neutrophil elastase) | IC50 [6]

COc1ccc(C(=O)N2CCCC2=O)cc1
Not Active: IC50 [1] | Ki [1] | IC50 [2] | IC50 (Vasopressin V1a receptor) | IC50 [3] | Ki [3] | IC50 [4] | Ki [4] | IC50 [5] | IC50 (Neutrophil elastase) | IC50 [6]

O=c1cnn([C@@H]2O[C@H](CO)[C@@H](O)[C@H]2O)c(=O)[nH]1 [6-AZAURIDINE]
Not Active: IC50 [1] | Ki [1] | IC50 [2] | IC50 (Vasopressin V1a receptor) | IC50 [3] | Ki [3] | IC50 [4] | Ki [4] | IC50 [5] | IC50 (Neutrophil elastase) | IC50 [6]

CC[C@H](C)[C@H]1O[C@]2(C=C[C@@H]1C)C[C@@H]1C[C@@H](C/C=C(\C)[C@@H](O[C@H]3C[C@H](OC)[C@@H](O[C@H]4C[C@H](OC)[C@@H](O)[C@H](C)O4)[C@H](C)O3)[C@@H](C)/C=C/C=C3\CO[C@@H]4[C@H](O)C(C)=C[C@@H](C(=O)O1)[C@]34O)O2.CO[C@H]1C[C@H](O[C@H]2[C@H](C)O[C@@H](O[C@@H]3/C(C)=C/C[C@@H]4C[C@@H](C[C@]5(C=C[C@H](C)[C@@H](C(C)C)O5)O4)OC(=O)[C@@H]4C=C(C)[C@@H](O)[C@H]5OC/C(=C\C=C\[C@@H]3C)[C@]54O)C[C@@H]2OC)O[C@@H](C)[C@@H]1O [ABAMECTIN]
Not Active: IC50 [1] | Ki [1] | IC50 [2] | IC50 (Vasopressin V1a receptor) | IC50 [3] | Ki [3] | IC50 [4] | Ki [4] | IC50 [5] | IC50 (Neutrophil elastase) | IC50 [6]

NCCCC(O)(P(=O)(O)O)P(=O)(O)O [ALENDRONIC ACID]
Not Active: IC50 [2] | IC50 (Vasopressin V1a receptor) | IC50 [3] | Ki [3] | IC50 [4] | Ki [4] | IC50 [5] | IC50 (Neutrophil elastase) | IC50 [6]

Cc1nnc2n1-c1ccc(Cl)cc1C(c1ccccc1)=NC2 [ALPRAZOLAM]
Not Active: IC50 [1] | Ki [1] | IC50 [2] | IC50 (Vasopressin V1a receptor) | IC50 [3] | Ki [3] | IC50 [4] | Ki [4] | IC50 [5] | IC50 (Neutrophil elastase) | IC50 [6]

Cn1c(=O)c2[nH]cnc2n(C)c1=O.Cn1c(=O)c2[nH]cnc2n(C)c1=O.NCCN [AMINOPHYLLINE]
Not Active: IC50 [1] | Ki [1] | IC50 [2] | IC50 (Vasopressin V1a receptor) | IC50 [3] | Ki [3] | IC50 [4] | Ki [4] | IC50 [5] | IC50 (Neutrophil elastase) | IC50 [6]

CCC1(CCC(C)C)C(=O)NC(=O)NC1=O [AMOBARBITAL]
Not Active: IC50 [1] | Ki [1] | IC50 [2] | IC50 (Vasopressin V1a receptor) | IC50 [3] | Ki [3] | IC50 [4] | Ki [4] | IC50 [5] | IC50 (Neutrophil elastase) | IC50 [6]

CC1(C)S[C@@H]2[C@H](NC(=O)[C@H](N)c3ccccc3)C(=O)N2[C@H]1C(=O)O [AMPICILLIN]
Not Active: IC50 [2] | IC50 (Vasopressin V1a receptor) | IC50 [3] | Ki [3] | IC50 [4] | Ki [4] | IC50 [5] | IC50 (Neutrophil elastase) | IC50 [6]

COc1ccc(C2C(=O)c3ccccc3C2=O)cc1 [ANISINDIONE]
Not Active: IC50 [1] | Ki [1] | IC50 [2] | IC50 (Vasopressin V1a receptor) | IC50 [3] | Ki [3] | IC50 [4] | Ki [4] | IC50 [5] | IC50 (Neutrophil elastase) | IC50 [6]

O=C1O[C@H]([C@@H](O)CO)C(O)=C1O [ASCORBIC ACID]
Not Active: IC50 [1] | Ki [1] | IC50 [2] | IC50 (Vasopressin V1a receptor) | IC50 [3] | Ki [3] | IC50 [4] | Ki [4] | IC50 [5] | IC50 (Neutrophil elastase) | IC50 [6]

CN1[C@@H]2CC[C@H]1C[C@@H](OC(=O)C(CO)c1ccccc1)C2 (some centres not stated) [ATROPINE]
Not Active: IC50 [2] | IC50 (Vasopressin V1a receptor) | IC50 [3] | Ki [3] | IC50 [4] | Ki [4] | IC50 [5] | IC50 (Neutrophil elastase) | IC50 [6]

CC(C(=O)O)c1ccc2oc(-c3ccc(Cl)cc3)nc2c1 (configuration not stated) [BENOXAPROFEN]
Not Active: IC50 [1] | Ki [1] | IC50 [2] | IC50 (Vasopressin V1a receptor) | IC50 [3] | Ki [3] | IC50 [4] | Ki [4] | IC50 [5] | IC50 (Neutrophil elastase) | IC50 [6]

COc1ccc2cc3[n+](cc2c1OC)CCc1cc2c(cc1-3)OCO2.[Cl-] [BERBERINE CHLORIDE]
Not Active: IC50 [1] | Ki [1] | IC50 [2] | IC50 (Vasopressin V1a receptor) | IC50 [3] | Ki [3] | IC50 [5] | IC50 (Neutrophil elastase) | IC50 [6]

O=C(O)CCNC(=O)c1ccccc1 [BETAMIPRON]
Not Active: IC50 [1] | Ki [1] | IC50 [2] | IC50 (Vasopressin V1a receptor) | IC50 [3] | Ki [3] | IC50 [4] | Ki [4] | IC50 [5] | IC50 (Neutrophil elastase) | IC50 [6]

COc1cc(N)c(Cl)cc1C(=O)NC1CCN(CCCOc2ccc(F)cc2)CC1OC (configuration not stated) [CISAPRIDE]
Not Active: IC50 [2] | IC50 (Vasopressin V1a receptor) | IC50 [3] | Ki [3] | IC50 [4] | Ki [4] | IC50 [5] | IC50 (Neutrophil elastase) | IC50 [6]

CC[C@H]1CN2CCc3cc(OC)c(OC)cc3[C@@H]2C[C@@H]1C[C@H]1NCCc2cc(OC)c(OC)cc21 [EMETINE]
Not Active: IC50 [2] | IC50 (Vasopressin V1a receptor) | IC50 [3] | Ki [3] | IC50 [4] | Ki [4] | IC50 [5] | IC50 (Neutrophil elastase) | IC50 [6]

CCN(CC)CCOCCC1=CCC2CC1C2(C)C (configuration not stated) [MYRTECAINE]
Not Active: IC50 [2] | IC50 (Vasopressin V1a receptor) | IC50 [3] | Ki [3] | IC50 [4] | Ki [4] | IC50 [5] | IC50 (Neutrophil elastase) | IC50 [6]

O=C(O)c1cccnc1Nc1cccc(C(F)(F)F)c1 [NIFLUMIC ACID]
Not Active: IC50 [1] | Ki [1] | IC50 (Vasopressin V1a receptor) | IC50 [3] | Ki [3] | IC50 [4] | Ki [4] | IC50 [5] | IC50 (Neutrophil elastase) | IC50 [6]

COc1cc2nc(N3CCN(C(=O)c4ccco4)CC3)nc(N)c2cc1OC [PRAZOSIN]
Not Active: IC50 [2] | IC50 (Vasopressin V1a receptor) | IC50 [3] | Ki [3] | IC50 [5] | IC50 (Neutrophil elastase) | IC50 [6]

CCCNCC(O)COc1ccccc1C(=O)CCc1ccccc1 (configuration not stated) [PROPAFENONE]
Not Active: IC50 [2] | IC50 (Vasopressin V1a receptor) | IC50 [3] | Ki [3] | IC50 [4] | Ki [4] | IC50 [5] | IC50 (Neutrophil elastase) | IC50 [6]
